According to patent publication US20060068496A1, “Differentiation of stem cells” (priority 2004, published 2006):

Assays:
Format in all cases: cell-based, human
Hay1 [1] = test: Growth of Hay1 in defined medium after removal of individual peptide hormone factors; conditions: for effect on growth of removal of the factor from the medium: Hay1, defined feeder free medium, factor removed individually
Experimental: The use of feeder layers complicates the use of stem cells for a variety of applications. Use of feeder layers dramatically raise the background in standard in vitro toxicology assays, such as MTT or resazurin reductions confounding the results. Hay1 can be grown routinely under defined conditions. Standard medium consists of KO-DMEM, 15% KO-serum replacement, glutamine, nonessential amino acids, β-MeSH, 10 ng/ml oncostatin M, 10 ng/ml SCF and 25 ng/ml bFGF. Using this medium, Hay1 continues to express the markers listed above and doubles approximately every three to four days. This is slightly slower than their doubling on feeder layers.
Growth of Hay1 was examined under various conditions known to affect stem cell growth and differentiation. Mouse and human EG cells require a source of gp130 signaling for growth in culture (Shamblott et al. (1998); Koshimuzu et al. (1996) Development 122, 1235-1242).
(§1) Since Oct 4 controls Nanog expression (Rodda et al. (2005)), it was expected that induction of Oct 4 would also raise nanog, and this is what was observed.

ACTHep1-6 = test: Reversal of transformation of ACTHep1-6 by ponasterone A induced dominant negative RAS; conditions: 10 μM ponasterone A in Med3, 5% serum, 10,000 cells per well
Excerpt: Identification of a human hepatocyte cell line starting from human EG cells using sequential expression of an activated and a dominant negative transforming gene can be performed as follows. Human EG cells can be transfected with a construct containing the human hepatitis B virus core promoter/enhancer (SEQ ID NO:1) driving an activated H-RAS gene (SEQ ID NO:2) and also optionally containing an ecdysone inducible gene switch promoter (SEQ ID NO:3) driving a dominant negative H-RAS gene (SEQ ID NO:4) (Sandig et al., (1996) Gene Therapy 3, 1002-1009; Saez et al., (2000) Proc. Natl. Acad. Sci. 97, 14512-14517). The activated H-RAS can be transcribed after differentiation of the EG cells. Transformed hepatocytes can be isolated in soft agar, cloned, expanded and frozen. Cultures can be plated at low density then treated with ponasterone A to induce the dominant negative RAS and reverse transformation. Cells are expected to arrest growth at subconfluent densities. Their identity as hepatocytes can be confirmed by production of albumin, cyp1A and cyp3A.
ACTHep1-6 can be further characterized. Individual vials can be thawed and plated in Med3, 5% serum as described above. Cells can be expanded, then plated at a density of 10,000 cells per well in a 96 well plate. […] Cells are selected having the cuboidal appearance of hepatocytes with a prominent nucleus. […]

Hay1 [2] = test: Zeocin sensitivity of Hay1 (standard titration curve, selection)
Experimental: In preparation for the establishment of the frt insert line, the sensitivity of Hay1 to zeocin was tested.
The plasmid pFrt/lac/Zeo (Invitrogen) can be transfected into Hay1 using Lipofectamine 2000. After 48 hrs, resistant cells can be selected by changing to medium containing 75 μg/ml Zeocin (Invitrogen). Non-resistant cells are dead in about seven days. An efficiency of about 1×10^−5/μg is expected. Approximately ten individual transfectants can be selected and tested for expression of lacZ. Copy number of the plasmid can be evaluated via Southern blotting. Transfectants with single insertions can be chosen for further analysis. To examine the behavior of the insert during differentiation, cells can be subjected to EB formation, followed by culture in Med3, 5% defined calf serum for one week. They can be reevaluated for lacZ expression. Since Zeo selection can be maintained, it is expected that all surviving cells will retain lacZ expression. It is a general strategy to maintain selective pressure on the inserts to insure expression of the surrounding DNA, as has been successfully employed in a number of other studies (Zweigerdt et al., (2001) Cytotherapy 5, 399-413; Liu et al. (2004) Stem Cells Dev. 13, 636-645; Schuldiner et al., (2003) Stem Cells 21, 257-265).

Oct 4 and Nanog = Oct 4 and Nanog expression in Hay1 by real time RT-QPCR
Excerpt: While surface markers and alkaline phosphatase are convenient markers for stem cells, it has become clear that expression of the transcription factors Oct 4 and Nanog are fundamental characteristics of stem cells (Rodda et al. (2005) J. Biol. Chem. 280, 24731-24737; Chambers et al. (2003) Cell 113, 643-655). Hay1 was examined for expression of these factors using real time RT-QPCR. […] Biomol. Screen. 5, 249-254), a medium that is a mixture of Weymouth's MAB, Ham's F12 and William's E. It also contains 5% defined calf serum (Hyclone). Actin was used as a standard.
as §1

[3] = Hay1, FGF replaced after withdrawal

oncostatin M was tested, and the “effect on growth of removal of the factor from the medium” value (from here on “effect on growth”) (Hay1 [1]) was “completely arrested the growth”, the “effect on growth” value (Hay1 [1]; listed as Onc M) was “some effect on growth” and the “alkaline phosphatase status of cultures after removal of the factor” value (Hay1 [1]; Hay1, defined medium, factor removed) was “alkaline phosphatase negative within several days”.

With human Stem Cell Factor [SCF] the “effect on growth” value (Hay1 [1]) was “some effect on growth”.

With `CC(C)CC[C@@H](O)[C@](C)(O)[C@H]1CC[C@@]2(O)C3=CC(=O)[C@@H]4C[C@@H](O)[C@@H](O)C[C@]4(C)[C@H]3CC[C@]12C` [ponasterone A] the “growth of cells after addition of ponasterone A” value (ACTHep1-6) was “stop growing over the next 24 hours and arrest at subconfluent densities”.

With `Cc1c(N)nc([C@H](CC(N)=O)NC[C@H](N)C(N)=O)nc1C(=O)N[C@H](C(=O)N[C@H](C)[C@@H](O)[C@H](C)C(=O)N[C@H](C(=O)NCCC1=N[C@@H](c2nc(C(=O)NCCCCN=C(N)N)cs2)CS1)[C@@H](C)O)[C@@H](O[C@@H]1O[C@@H](CO)[C@@H](O)[C@H](O)[C@@H]1O[C@H]1O[C@H](CO)[C@@H](O)[C@H](OC(N)=O)[C@@H]1O)c1cnc[nH]1` [zeocin] the effective selection concentration (Hay1 [2]; Hay1, standard titration curve) was 75 µg/mL and the “time until non-resistant cells are dead” value (Hay1 [2]; Hay1 transfected with pFrt/lac/Zeo, medium containing 75 μg/ml Zeocin) was “about seven”.

With “human basic Fibroblast Growth Factor [FGF]” the “effect on growth” value (Hay1 [1]) was “slight negative effect on growth”, the “effect on growth” value (Hay1 [1]; listed as bFGF) was “some effect on growth” and the “effect on morphology of removal of the factor” value (Hay1 [1]; Hay1, defined medium, FGF removed) was “flatter and more spread out on the dish”. The “Nanog expression after replacement of FGF” value (Oct 4 and Nanog; [3]) was “raise nanog”, the “Oct 4 expression after replacement of FGF” value (Oct 4 and Nanog; [3]) was “returned Oct 4 expression to its former level” and the “Oct 4 and Nanog expression after FGF withdrawal” value (Oct 4 and Nanog; Hay1, FGF withdrawn) was “dramatic reduction in expression”.
